Reference: patent US9809626B2, “Antibacterial agents: salinamide derivatives” (priority 2012, dated 2017)
In brackets after ≈: the same amount, converted by molar mass. Numbered stars: 1 amine (or outer) side, 2 acyl side, 3 side chain; on linkers, the order of the positions; unused ones are H or OH. Bridge positions count the residues as written; N and C are the ends. Square brackets hold non-standard residues; d marks the D form. Peptide text beside a SMILES is read from it. * marks the point of attachment. X7 = C[C@@H](Oc1ccc([C@H](N[*:1])C(=O)[*:2])cc1)[C@](O)(/C=C/C(=O)[*:3])CNCCCCCCNC(=O)OC(C)(C)C; X6 = C[C@@H](Oc1ccc([C@H](N[*:1])C(=O)[*:2])cc1)[C@](O)(/C=C/C(=O)[*:3])CNCCCNC(=O)OC(C)(C)C; X4 = CCCCOC[C@@](O)(/C=C/C(=O)[*:3])[C@@H](C)Oc1ccc([C@H](N[*:1])C(=O)[*:2])cc1; X5 = C[C@@H](Oc1ccc([C@H](N[*:1])C(=O)[*:2])cc1)[C@](O)(/C=C/C(=O)[*:3])CO; Pentanoyl(2R-Me,3R-OH,4-Me) = CC(C)[C@@H](O)[C@@H](C)C(=O)*; d(aIle) = CC[C@H](C)[C@@H](N)C(=O)O; d(aThr) = C[C@@H](O)[C@@H](N)C(=O)O; NMeF = CN[C@@H](Cc1ccccc1)C(=O)O

What was measured:
Sal-resistant mutants [1] = settings: Ebright et al., WO/2012/129173; cited from earlier work
[2] = system: Enterobacter cloacae ATCC13047; assay: Antibacterial activity, broth microdilution; assay type: cell-based; settings: Enterobacter cloacae, ATCC13047; minimal concentration resulting in ≧50% inhibition of bacterial growth; read-out: MIC50 Enterobacter cloacae ATCC 13047
Source text: (§1) Antibacterial activity was quantified using broth microdilution [Clinical and Laboratory Standards Institute (CLSI/NCCLS), Methods for Dilution Antimicrobial Susceptibility Tests for Bacteria That Grow Aerobically; Approved Standard, Eighth Edition. CLIS Document M07-A8 (CLIS, Wayne Pa.), 2009]. Assays with Enterobacter cloacae ATCC13047, Pseudomonas aeruginosa ATCC10145, and Escherichia coli D21f2to1C, employed a starting cell density of 2-5×10^5 cfu/ml, Mueller Hinton II cation adjusted broth (BD Biosciences, Inc.), and an air atmosphere. Assays with Haemophilus influenzae ATCC49247 and Neisseria gonorrhoeae ATCC19424 employed a starting cell density of 2-5×10^5 cfu/ml, Haemophilus Test Medium broth (Barry et al., 1993) and a 5% CO2/95% air atmosphere. MIC50 was defined as the minimal concentration resulting in ≧50% inhibition of bacterial growth.

[3] = system: Escherichia coli D21f2tolC; assay: Antibacterial activity, broth microdilution; assay type: cell-based; settings: Escherichia coli, D21F2TOLC, read-out: MIC50 Escherichia coli D21f2tolC
Source text: as §1

Sal-resistant mutants [4] = assay: Cross-resistance of Sal-resistant mutants to other RNAP inhibitors; assay type: cell-based; settings: disclosed herein

Compound: ONC(=Nc1ccccc1)c1cccc(C(F)(F)F)c1 [CBR703]
- cross-resistance of Sal-resistant mutants to the compound (Sal-resistant mutants [1]): not cross-resistant

Compound: CC[C@H](C)[C@H]1NC(=O)[C@@H](NC(=O)[C@H](C)[C@H](O)C(C)C)[C@@H](C)OC(=O)[C@@H]2COC(=O)CNC(=O)/C=C/[C@](O)(CNCCCNC(=O)OC(C)(C)C)[C@@H](C)Oc3ccc(cc3)[C@H](NC1=O)C(=O)N(C)[C@@H](Cc1ccccc1)C(=O)N[C@H]([C@@H](C)O)C(=O)N2 [Sal-NH(CH2)3NHBoc (7), Sal-NH(CH2)3NHBoc] ({Pentanoyl(2R-Me,3R-OH,4-Me)}-T[d(aIle)][X6][NMeF][d(aThr)]S; ester 1-C; linker 3-6 via G)
- MIC50 [2]: 100 µg/mL (≈ 83.7 µM)
- MIC50 [3]: 1.56 µg/mL (≈ 1.31 µM)

Compound: CC[C@H](C)[C@H]1NC(=O)[C@@H](NC(=O)[C@H](C)[C@H](O)C(C)C)[C@@H](C)OC(=O)[C@@H]2COC(=O)CNC(=O)/C=C/[C@](O)(CNCCCCCCNC(=O)OC(C)(C)C)[C@@H](C)Oc3ccc(cc3)[C@H](NC1=O)C(=O)N(C)[C@@H](Cc1ccccc1)C(=O)N[C@H]([C@@H](C)O)C(=O)N2 [Sal-NH(CH2)6NHBoc (9), Sal-NH(CH2)6NHBoc] ({Pentanoyl(2R-Me,3R-OH,4-Me)}-T[d(aIle)][X7][NMeF][d(aThr)]S; ester 1-C; linker 3-6 via G)
- MIC50 [2]: 25 µg/mL (≈ 20.2 µM)
- MIC50 [3]: 0.78 µg/mL (≈ 0.631 µM)

Compound: CCCCOC[C@@]1(O)/C=C/C(=O)NCC(=O)OC[C@@H]2NC(=O)[C@@H]([C@@H](C)O)NC(=O)[C@H](Cc3ccccc3)N(C)C(=O)[C@@H](NC(=O)[C@@H]([C@@H](C)CC)NC(=O)[C@@H](NC(=O)[C@H](C)[C@H](O)C(C)C)[C@@H](C)OC2=O)c2ccc(cc2)O[C@@H]1C [Sal-OBu A (5A), Sal-OBu A] ({Pentanoyl(2R-Me,3R-OH,4-Me)}-T[d(aIle)][X4][NMeF][d(aThr)]S; ester 1-C; linker 3-6 via G)
- MIC50 [2]: 12.5 µg/mL (≈ 11.4 µM)
- MIC50 [3]: 1.56 µg/mL (≈ 1.43 µM)

Compound: CC[C@H](C)[C@H]1NC(=O)[C@@H](NC(=O)[C@H](C)[C@H](O)C(C)C)[C@@H](C)OC(=O)[C@@H]2COC(=O)CNC(=O)/C=C/[C@](O)(CO)[C@@H](C)Oc3ccc(cc3)[C@H](NC1=O)C(=O)N(C)[C@@H](Cc1ccccc1)C(=O)N[C@H]([C@@H](C)O)C(=O)N2 [Sal-OH (4), Sal-OH] ({Pentanoyl(2R-Me,3R-OH,4-Me)}-T[d(aIle)][X5][NMeF][d(aThr)]S; ester 1-C; linker 3-6 via G)
- MIC50 [2]: 25 µg/mL (≈ 24.1 µM)
- MIC50 [3]: 0.78 µg/mL (≈ 0.751 µM)

Compound: CNC(=O)[C@@H](C)[C@H]1C(=O)/C(=C(O)/C=C/C(C)=C/[C@@H](C)[C@H]2O[C@@]3(C)O[C@H](C=C[C@@]34CO4)[C@@H]2C)C(=O)N1[C@@H]1CC[C@H](O)[C@H](C)O1 [streptolydigin]
- cross-resistance of Sal-resistant mutants with the compound (Sal-resistant mutants [4]): do not exhibit cross-resistance

Compound: lipiarmycin
- cross-resistance of Sal-resistant mutants with the compound (Sal-resistant mutants [4]): do not exhibit cross-resistance

Compound: myxopyronin
- cross-resistance of Sal-resistant mutants with the compound (Sal-resistant mutants [4]): do not exhibit cross-resistance
